≈ marks a conversion by molar mass, not a printed value.
Experiments:
Experiment in all cases: In vitro antibacterial evaluation: minimum inhibitory concentration (MIC), broth dilution method
Format in all cases: cell-based
Escherichia coli [1] = system: Escherichia coli
Staphylococcus sp. = details: 18 hours at 35° C.
Procedure, shortened: (§1)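 Broth dilution per NCCLS M7-A2 in Muller-Hinton II […], inoculum 5×10^5 CFU/mL, antibiotic tested over 64-0.06 μg/mL. MIC is taken as the lowest concentration that inhibits growth. Panel includes recent clinical isolates resistant to methicillin, penicillin and/or vancomycin.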

Escherichia coli [2] = system: Escherichia coli; remark: listed apart in the source
Procedure, shortened: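 Susceptibility determined by NCCLS-recommended broth dilution (M7-A2), Muller-Hinton II […]. Concentration span 64-0.06 μg/mL, inoculum 5×10^5 CFU/mL. Isolates include strains resistant to methicillin, penicillin and/or vancomycin.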

Enterococcus sp. = details: for MIC Enterococcus faecalis (GC 2242) / MIC Enterococcus faecalis (GC 4552): 18 hours at 35° C.
Procedure, shortened: as §1

Streptococcus sp. = details: 18 hours at 35° C.
Procedure, shortened: as §1

SMILES	MIC Escherichia coli (ATCC 25922) (Escherichia coli [1])	MIC Coagulase Negative Staphylococcus (GC 4547) (Staphylococcus sp.)	MIC Coagulase Negative Staphylococcus (GC 4548) (Staphylococcus sp.)	MIC Coagulase Negative Staphylococcus (GC 4549) (Staphylococcus sp.)	MIC Coagulase Negative Staphylococcus (GC 4551) (Staphylococcus sp.)	MIC Staphylococcus aureus (ATCC 29213) (Staphylococcus sp.)	MIC Staphylococcus aureus (GC 1131) (Staphylococcus sp.)	MIC Staphylococcus aureus (GC 4541) (Staphylococcus sp.)	MIC Staphylococcus aureus (GC 4542) (Staphylococcus sp.)	MIC Staphylococcus aureus (GC 4544) (Staphylococcus sp.)	MIC Staphylococcus aureus (GC 4545) (Staphylococcus sp.)	MIC Staphylococcus aureus-SMITH (GC 4543) (Staphylococcus sp.)	MIC Staphylococcus haemolyticus (GC 4546) (Staphylococcus sp.)	MIC Escherichia coli (GC 4559) (Escherichia coli [2])	MIC Escherichia coli (GC 4560) (Escherichia coli [2])	MIC Enterococcus avium (GC 4558) (Enterococcus sp.)	MIC Enterococcus faecalis (ATCC 29212) (Enterococcus sp.)	MIC Enterococcus faecalis (GC 2242) (Enterococcus sp.)	MIC Enterococcus faecalis (GC 4552) (Enterococcus sp.)	MIC Enterococcus faecalis (GC 4553) (Enterococcus sp.)	other results
CC(c1ccc(F)cc1)C1NC(=O)CNC(=O)C(CO)NC(=O)C(C(O)C2CNC(=N)N2C2OC(CO)C(O)C(O)C2O)NC(=O)C(C(O)C2CNC(=N)N2)NC(=O)C(Cc2ccc(OC3OC(CO)C(OC4OC(CO)C(O)C(O)C4O)C(O)C3O)cc2)NC1=O (stereo not drawn) [Example 261a, Cyclo[glycyl-4-fluoro-β-methylphenylalanyl-O-(4-O-hexopyranosylhexopyranosyl)tyrosyl-3-(2-iminoimidazolidin-4-yl)seryl-3-(3-hexopyranosyl-2-iminoimidazolidin-4-yl)serylseryl]]	>64 µg/mL	>64 µg/mL	>64 µg/mL	>64 µg/mL	>64 µg/mL	>64 µg/mL	>64 µg/mL	>64 µg/mL	>64 µg/mL	>64 µg/mL	>64 µg/mL	>64 µg/mL	>64 µg/mL	>64 µg/mL	>64 µg/mL	>64 µg/mL	>64 µg/mL	>64 µg/mL	>64 µg/mL	>64 µg/mL	MIC Enterococcus faecalis (GC 4554) (Enterococcus sp.): >64 µg/mL; MIC Enterococcus faecium (GC 2243) (Enterococcus sp.): >64 µg/mL; MIC Enterococcus faecium (GC 4556) (Enterococcus sp.): >64 µg/mL; MIC Enterococcus faecium (GC 4557) (Enterococcus sp.): >64 µg/mL; MIC Streptococcus agalactiae (GC 4564) (Streptococcus sp.): >64 µg/mL; MIC Streptococcus pyogenes (ID-3187) (Streptococcus sp.): >64 µg/mL
CC(C)CC(=O)OC1C(OC2C(CO)OC(Oc3ccc(CC4NC(=O)C(C(C)c5ccc(F)cc5)NC(=O)CNC(=O)C(CO)NC(=O)C(C(O)C5CNC(=N)N5C5OC(CO)C(O)C(O)C5O)NC(=O)C(C(O)C5CNC(=N)N5)NC4=O)cc3)C(O)C2O)OC(CO)C(O)C1O (stereo not drawn) [Example 261b, Cyclo[glycyl-4-fluoro-β-methylphenylalanyl-O-[4-O-[2-O-(3-methylbutanoyl)hexopyranosyl]-hexopyranosyl]tyrosyl-3-(2-iminoimidazolidin-4-yl)seryl-3-(3-hexopyranosyl-2-imino-imidazolidin-4-yl)serylseryl]]	>64 µg/mL	8 µg/mL (≈ 5.72 µM)	4 µg/mL (≈ 2.86 µM)	4 µg/mL (≈ 2.86 µM)	8 µg/mL (≈ 5.72 µM)	8 µg/mL (≈ 5.72 µM)	16 µg/mL (≈ 11.4 µM)	16 µg/mL (≈ 11.4 µM)	16 µg/mL (≈ 11.4 µM)	8 µg/mL (≈ 5.72 µM)	16 µg/mL (≈ 11.4 µM)	8 µg/mL (≈ 5.72 µM)	8 µg/mL (≈ 5.72 µM)	>64 µg/mL	4 µg/mL (≈ 2.86 µM)	64 µg/mL (≈ 45.8 µM)	>64 µg/mL	64 µg/mL (≈ 45.8 µM)	64 µg/mL (≈ 45.8 µM)	64 µg/mL (≈ 45.8 µM)	MIC Enterococcus faecalis (GC 4554) (Enterococcus sp.): >64 µg/mL; MIC Enterococcus faecium (GC 2243) (Enterococcus sp.): >64 µg/mL; MIC Enterococcus faecium (GC 4556) (Enterococcus sp.): 64 µg/mL (≈ 45.8 µM); MIC Enterococcus faecium (GC 4557) (Enterococcus sp.): 16 µg/mL (≈ 11.4 µM); MIC Streptococcus agalactiae (GC 4564) (Streptococcus sp.): 8 µg/mL (≈ 5.72 µM); MIC Streptococcus pyogenes (ID-3187) (Streptococcus sp.): 4 µg/mL (≈ 2.86 µM)

From US8247211B2, “Glycopeptide antibiotics” (American Cyanamid Company, priority 2001, dated 2012)
